The values that follow come from patent publication US9132071B2, “Compositions containing quaternary ammonium compounds” (SANTEN SAS, priority 2006, dated 2015).

Each structure is given as a SMILES string.

Data set [1] can be described thus: Emulsion zeta potential by electrophoretic mobility. The format is physicochemical. To be noted: 25° C., dilution 1:250. The protocol: Zeta potential can be measured by a zetameter such as Zetasizer 2000, Malvern Instruments Ltd, UK. The zeta potential of the emulsion droplet surface is determined by electrophoretic mobility. Measurements are performed at 25° C. following dilution at 1:250 of the emulsion in double distilled water. The electrophoretic mobility is converted into zeta potential values through the Smoluchowsky equation.

Data set [2] in a line: Emulsion droplet size by dynamic light scattering. Format: physicochemical. To be noted: 25° C., diluted in double distilled water. As for the experimental part: Measurements are performed at 25° C. following dilution of the emulsion in double distilled water.
Data set [3] relates to white male New Zealand rabbits. Nature of the data set: Ocular irritation, adaptation of the Draize test. To be noted: BAK C16 within an emulsion; 50 μL instilled, rabbit eye; FIG. 2. Format: in vivo. The protocol:
The ocular irritation of the emulsions and solutions has been evaluated using an adaptation of the Draize test on white male New Zealand rabbits (2.75-3.00 kg). Fifty μL of emulsion or solution were instilled unilaterally and 50 μL of NaCl 0.9% in the other eye of the three rabbits per group. General aspect assessment of the animals was performed (behavior, blinking, itching of the eye with forelegs) as well as eye tissue evaluation (conjunctiva, cornea, iris) after instillation, 1, 24, 48 and 72 hours. Observations were scored according to the Draize test protocol.

With `CCCCCCCCCCCC[N+](C)(C)C.[Br-]` [ATAB C12, lauryl trimethyl ammonium bromide], the Emulsions zeta potential is given as −35.5 mV in data set [1] (emulsion containing 0.0025% QA) and −14.6 mV in data set [1] (emulsion containing 0.005% QA).

`CCCCCCCCCCCCCCCC[N+](C)(C)C.[Br-]` [ATAB C16, cetyl trimethyl ammonium bromide]: the Emulsion droplet size in data set [2] (emulsion containing 0.0025% QA) is listed as 222 nm; in data set [2] (emulsion containing 0.005% QA), 212 nm. Besides, the Emulsions zeta potential entry is “+11.9 mV” in data set [1] (emulsion containing 0.0025% QA) and “+20.2 mV” in data set [1] (emulsion containing 0.005% QA).

As to `CCCCCCCCCCCC[N+](C)(C)Cc1ccccc1` [BAK C12, benzododecinium chloride], the Emulsion droplet size was determined as 198 nm in data set [2] (emulsion containing 0.005% QA); 263 nm in data set [2] (emulsion containing 0.01% QA); 230 nm in data set [2] (emulsion containing 0.02% QA); 225 nm in data set [2] (emulsion containing 0.04% QA); 180 nm in data set [2] (emulsion containing 0.1% QA). Moreover, the Emulsions zeta potential is on record as −6.9 mV in data set [1] (emulsion containing 0.005% QA); “+4.2 mV” in data set [1] (emulsion containing 0.01% QA); “+7.9 mV” in data set [1] (emulsion containing 0.02% QA); “+16.8 mV” in data set [1] (emulsion containing 0.04% QA); “+23.8 mV” in data set [1] (emulsion containing 0.1% QA).

For the compound `CCCCCCCCCCCCCC[N+](C)(C)Cc1ccccc1` [BAK C14, myristalkonium chloride], the Emulsion droplet size in data set [2] (emulsion containing 0.0025% QA) stood at 204 nm; in data set [2] (emulsion containing 0.005% QA), 190 nm; in data set [2] (emulsion containing 0.01% QA), 190 nm; in data set [2] (emulsion containing 0.02% QA), 155 nm; in data set [2] (emulsion containing 0.04% QA), 238 nm; in data set [2] (emulsion containing 0.1% QA), 185 nm. Moreover, the Emulsions zeta potential result is on record as “+11.4 mV” in data set [1] (emulsion containing 0.0025% QA); “+19.6 mV” in data set [1] (emulsion containing 0.005% QA); “+22.9 mV” in data set [1] (emulsion containing 0.01% QA); “+28.4 mV” in data set [1] (emulsion containing 0.02% QA); “+39.3 mV” in data set [1] (emulsion containing 0.04% QA); “+44.5 mV” in data set [1] (emulsion containing 0.1% QA).

Turning to `CCCCCCCCCCCCCCCC[N+](C)(C)Cc1ccccc1` [BAK C16, cetylkonium chloride], the Emulsion droplet size in data set [2] (emulsion containing 0.001% QA) was determined as 220 nm; in data set [2] (emulsion containing 0.0025% QA), 210 nm; in data set [2] (emulsion containing 0.005% QA) it was 148 nm; in data set [2] (emulsion containing 0.01% QA) it was 180 nm; in data set [2] (emulsion containing 0.02% QA), 155 nm; in data set [2] (emulsion containing 0.04% QA) it was 188 nm. The compound also returned an Emulsion droplet size in data set [2] (emulsion containing 0.1% QA) of 183 nm. Moreover, the Emulsions zeta potential result is given as “+16.2 mV” in data set [1] (emulsion containing 0.001% QA); “+24.4 mV” in data set [1] (emulsion containing 0.0025% QA); “+31.4 mV” in data set [1] (emulsion containing 0.005% QA); “+36.7 mV” in data set [1] (emulsion containing 0.01% QA); “+44.1 mV” in data set [1] (emulsion containing 0.02% QA); “+47.2 mV” in data set [1] (emulsion containing 0.04% QA). The Emulsions zeta potential entry in data set [1] (emulsion containing 0.1% QA) is “+48.9 mV”. For the same compound, the “Ocular irritation (toxicity), Draize score” value in data set [3] is on record as “unexpected decrease of its toxicity”.
